Usually EC50 stands for the concentration at which the effect is half-maximal.

These results are taken from patent US20170065554A1, “ACTIVATED SOY POD FIBER” (priority 2014, published 2017).

The test deals with 3T3-L1 adipocytes. Nature of the test: [3H]-2-deoxy-glucose uptake by adipocytes. The format is cell-based, Murine. How it is done:
To determine if one mechanism for glyceollins to improve the oral glucose challenge in a prediabetic model is by increasing the glucose uptake by fat, glyceollin pharmacology was studied in 3T3-L1 cells. Murine preadipocytes (Zen-Bio Inc.) were cultured using PM-1-L1 medium (Zen-Bio Inc.) containing Dulbecco's modified Eagle's medium (DMEM)/Ham's F-10 medium (1:1, v/v), HEPES 15 mM (pH 7.4), 10% (v/v) fetal bovine serum, penicillin (100 U/ml), streptomvcin ([…]), and amphotericin B (0.25 μg/ml) in a humidified atmosphere (5% CO2/95% air). After 3-4 days, confluent cells were placed in differentiation medium (DM-2-L1, Zen-Bio Inc.) containing DMEM/Ham's F-10 medium (1:1, v/v), HEPES 15 mM (pH 7.4), 3% (v/v) fetal bovine serum, biotin ([…]), pantothenate (17 μM), human insulin (100 nM), dexamethasone (1 μM), penicillin (100 U/ml), streptomycin (100 μg/ml), amphotericin B (0.25 μg/ml), isobutylmethylxanthine ([…]) and PPARγ agonist (10 μM) and further incubated in the humidified atmosphere for 3 days. […]
Adipocytes were rinsed in sterile, fresh KRH buffer (HEPES pH=7.4, 1 mM CaCl2, 1.2 mM MgSO4, 1 mM KH2PO4, 1.4 mM KCl, […], 130 mM NaCl), and then preincubated for 24 h in KRH buffer. […] The vials were mixed and counted for 10 min in an Applied Biosystems 1100 liquid scintillation counter using the factory preset window to detect tritium.

Where “and” joins values, the source holds several entries; their conditions need not be identical. Equal values may be shown once.

On to insulin, for which the “maximal stimulation relative to basal glucose uptake” value (0.3 nM-300 nM insulin) was “about 3 times”. Further, the 50% effective concentration (EC50) (insulin 30 min at 37° C., then 10 min [3H]-2-deoxy-glucose, read-out: EC50 of insulin-mediated glucose uptake) was 1.9 nM and 1.92 nM.
